According to patent US7652015B2, “Kinase inhibitors” (Eli Lilly and Company, priority 2006, dated 2010):

Columns and labels:
[1] = tested on: p-MAPKAPK2; assay: Inhibition of p-MAPKAPK2 in vitro, anisomycin-stimulated RAW 264.7 cells, ELISA; type: cell-based, murine; conditions: Mus musculus, RAW264.7, read-out: IC50, inhibition of p-MAPKAPK2 in vitro
Protocol: RAW 264.7 cells (a murine monocytic/macrophage line ATCC) are seeded at a density of 50,000 cells/well in 96-well plates with RPMI-1640 medium plus 10% fetal bovine serum (FBS) and allowed to settle and adhere to the bottom of the well for 48 hours. After reaching confluence, cells are treated for 2 hours with 10 serial dilutions of different compounds. A control compound is always included. After 2 hours, anisomicin (100 ug/ml) is added and cells are incubated for 30 minutes at 37° C. under a 5% CO2 atmosphere. Then, cells are fixed and treated with hydrogen peroxide in order to remove endogenous peroxidase. Finally, plates are blocked with FBS, washed, and an ELISA assay is carried out by using an antiphospho-MAPKAPK (Thr 334, Cell Signalling, Cat # 3041) antibody and ahP-Conjugated Secondary Antibody. This reaction is detected by using FEMTO (Pierce) which is an enhanced chemiluminiscent substrate ahP that results in rapid kinetic light output and high signal intensity.

[2] = tested on: TNFα; assay: Inhibition of TNFα in vivo, LPS challenged mice, plasma ELISA; conditions: female Balb/c mice, p.o., LPS IP 400 μg/kg 1 hour after compound, plasma 1.5 hours after LPS
Protocol: Compounds are administered p.o. (30, 10, 3 and 1 mg/kg) to female Balb/c mice (6 mice/dose). 1 hour following compound administration at 4 doses (P.O. at volume of 0.1 mL/mouse; vehicle: 1% NaCMC/0.25% Tween-80 in water); mice are given an IP-injection of LPS at 400 μg/kg. 1.5 hours after LPS challenging, mice are anesthetized with isoflurane and blood is taken via cardiac puncture. TNFα-levels in the plasma are determined using ELISA kit from R&D Systems and dose response ED50 is determined.
The Threshold Minimum Effective Dose (TMED) 50 is the dose at which greater than or equal to 50% inhibition was achieved and statistically different from control/placebo.

[3] = Oral exposure in male Fischer 344 rats; type: in vivo; conditions: rat, 1 mg/kg, fasted, gavage, suspension 1 mg/mL at 1 mL/kg, plasma
Protocol: Compounds are screened for oral exposure in male Fischer 344 rats. Animals are fasted overnight and administered test compounds prepared as suspensions in sodium carboxymethylcellulose (1% w/v) containing Tween 80 (0.25% v/v) and antifoam (0.1% w/v). Dose suspensions are prepared at 1 mg/mL and administered at 1 mL/kg by gavage. Blood samples are taken between 0.5 h and 7 h after dose administration and plasma are prepared by centrifugation. Plasma samples are analyzed using online solid phase extraction and LC/MS/MS.

[4] = tested on: TNFα; assay: Effect on intra-articular LPS induced TNFα in rat ankle synovial lavage fluid; type: in vivo; conditions: female Lewis rats, orally, intra-articular LPS 10 μg one hour later, lavage after two hours
Protocol: Intra-articular injection of LPS into rat ankles induces the synthesis of TNFα, which can be measured in synovial lavage fluid. High levels of TNFα are detectable within 2 hours. Since the joint is the site where arthritis develops, this model can rapidly determine whether an orally administered compound has an effect on an inflammatory response in the synovium.
Six female Lewis rats (150-200 g) are place in each treatment group. The animals are given vehicle (1% NaCarboxymethylcellulose-0.25% Tween 80) or test compound
(1 mg/kg, 3 mg/kg, 10 mg/kg, and 30 mg/kg) orally. One hour later, 10 μl LPS (10 μg) is administered intra-articularly into the right ankle of each rat, while the left ankle receives 10 μL of saline. After two hours, each ankle is lavaged with 100 μL of saline. The lavage is collected and stored at −80° C. • Group #1: Vehicle (1% NaCMC-0.25% Tween 80, 1 mL, PO) • Group #2: Test compound (1 mg/kg, 1 mL, PO) • Group #3: Test compound (3 mg/kg, 1 mL, PO) • Group #4: Test compound (10 mg/kg, 1 mL, PO) • Group #5: Test compound (30 mg/kg, 1 mL, PO)
TNFα is measured with a commercially available ELISA kit (R&D, RTA00).

[5] = tested on: Phospho-MAPKAPK2; assay: Anisomycin-stimulated mice ex-vivo phospho-MAPKAPK2 inhibition assay by flow cytometry; type: in vivo; conditions: female Balb/c mice, po, blood after 2 hours, ex vivo 10 μg/ml anisomycin, CD11b+Ly6G- cells
Protocol: Female Balb/c mice with 8-10 week-old age are purchased from Taconic Inc. and dosed po with 0.2 mL volume of compounds at the concentrations of 30, 10, 3, 1 mg/kg. Blood is obtained from cardiac puncture after 2 hours or other indicated time periods and collected in EDTA-containing tubes. 100 μL of blood is incubated at 37° C. for 10 minutes. Whole blood is then mixed with FITC-conjugated rat anti-mouse Ly-6G mAb (1:250) and APC-conjugated rat anti-mouse CD11b mAb (1:100) and stimulated with 10 μg/ml anisomycin. Both cell surface antigen staining and anisomycin stimulation is conducted at 37° C. for 15 min and followed up with Lyse/Fix buffer (BD Biosciences, Cat#558049) for 10 min at room temperature. Lysed blood samples are spun down at 600×g for 8 minutes at room temperature with additional wash once by 4 mL PBS. 200 μL of diluted anti-Phospho-MAPKAPK-2 (Thr334) antibody (1:100 dilution) (Cell Signaling, Cat#3041) and mouse BD Fc Block (1:100 dilution) (BD Biosciences, 553141) in permeabilization Medium B (Caltag, Catg GAS002S-5) are added into blood cells and incubate at room temperature for 30 minutes. After the incubation, 3 mL of stain/wash buffer is added and cells are spanned down as described above with additional wash with 3 ml stain/wash buffer. […] Mean fluorescence of phosphono-MapKap-K2 staining is measured on gated CD11b+Ly6G-cells. […]

[6] = tested on: collagen induced arthritis; assay: Rat collagen induced arthritis efficacy model; type: in vivo; conditions: female Lewis rats, PO, bid for 14 days
Protocol: Female Lewis rats (≈190 g, Charles River Labs) are immunized with Bovine type II collagen (2 mg/mL) emulsified with an equal volume of adjuvant (aluminum hydroxide). are used. The rats are immunized with approximately […] of the emulsion intradermally on the back near the base of the tail. All animals are re-immunized 7 days later according to the same protocol. The rats begin to develop arthritis (characterized by swelling and redness of one or both ankles) from 12 to 14 days after the first immunization. The rats are equally distributed into five treatment groups at the first signs of arthritis and treatment is initiated with each rat dosed bid for 14 days.
Group 1 Vehicle (1% NaCarboxymethylcellulose+0.25% Tween 80) 1 mL, PO,
• Bid×14 days • Group 2 Test compound, 5 mg/kg, 1 mL, PO, Bid×14 • Group 3 Test compound, 15 mg/kg, 1 mL, PO, Bid×14 • Group 4 Test compound, 30 mg/kg, 1 mL, PO, Bid×14 • Group 5 Prednisolone 10 mg/kg, 1 mL, PO, qd×14 Ankle diameter is measured with calipers 5 days a week and recorded. Data is expressed as the area under the curve (AUC) generated from the composite inflammation scores and statistical analysis performed.

SMILES: CS(=O)(=O)O.Cc1ccc(-n2nc(C(C)(C)C)cc2NC(=O)Nc2ccc(N3CCN(C(=O)c4c(F)cccc4F)CC3)nc2C)cc1 [Example 5, 1-(5-tert-Butyl-2-p-tolyl-2H-pyrazol-3-yl)-3-{6-[4-(2,6-difluoro-benzoyl)-piperazin-1-yl]-2-methyl-pyridin-3-yl}-urea methanesulfonate]
- IC50 [1]: 4.5 nM
- TMED50, suppression of TNFα in vivo [2]: 2.24 mg/kg
- Cmax [3]: 9390 ng/mL
- AUC(0-t) ([3]; read-out: AUC(0-7h)): 36800 ng·h/mL
- TMED50, inhibition of TNFα synthesis in synovial lavage fluid [4]: 3.57 mg/kg
- TMED50, inhibition of p-MAPKAPK synthesis [5]: 2.28 mg/kg
- histology TMED 50 [6]: 5 mg/kg bid
